Legend:
Experiment in all cases: relative viability (nuclei count vs DMSO), 5 days (fraction); higher = more cells survive
[1] = compound: C=CC(=O)N1CCC[C@@H](n2nc(-c3ccc(Oc4ccccc4)cc3)c3c(N)ncnc32)C1 [Ibrutinib] + COc1cc2c(Oc3ccc(NC(=O)C4(C(=O)Nc5ccc(F)cc5)CC4)cc3F)ccnc2cc1OCCCN1CCOCC1 [Foretinib] (partner 0.25 µM)
Outline: (§1)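 A single step with final 0.05% Triton X-100, 1% formaldehyde and 1 ug/ml Hoechst fixed the cells and stained nuclei 5 days after treatment. Lung cancer cell lines in 1536-well plates had been treated by pin tool the day after seeding with one drug alone or a fixed anchor-drug dose plus five library-drug doses (not always all listed) in √10 steps, and nuclei were counted on 4× images. Relative viability is the ratio of nuclei in treated wells to nuclei in vehicle wells, taken as the median of duplicate plates.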

[2] = compound: C=CC(=O)Nc1cc(-n2c(=O)ccc3cnc4ccc(-c5ccc(NS(C)(=O)=O)cc5)cc4c32)ccc1C [BMX-IN-1] + Nc1nc2[nH]cc(CCc3ccc(C(=O)N[C@@H](CCC(=O)O)C(=O)O)cc3)c2c(=O)[nH]1 [Pemetrexed] (partner 0.2 µM)
Outline: as §1

[3] = compound: C=CCc1cccc(/C=N/NC(=O)CN2CCN(Cc3ccccc3)CC2)c1O [PAC-1] + Cc1cc(Nc2cc(N3CCN(C)CC3)nc(Sc3ccc(NC(=O)C4CC4)cc3)n2)n[nH]1 [Tozasertib] (partner 0.1 µM)
Outline: as §1

[4] = compound: C=CCc1cccc(/C=N/NC(=O)CN2CCN(Cc3ccccc3)CC2)c1O [PAC-1] + Nc1ncn([C@H]2C[C@H](O)[C@@H](CO)O2)c(=O)n1 [Decitabine] (partner 2 µM)
Outline: as §1

Cell Line: NCI-H1755
- relative viability ([1]; first compound 0.005 µM): 0.929
- relative viability ([1]; first compound 0.01581 µM): 0.925
- relative viability ([1]; first compound 0.05 µM): 0.951
- relative viability ([1]; first compound 0.1581 µM): 1.02
- relative viability ([1]; first compound 0.5 µM): 0.855
- relative viability ([2]; first compound 0.02 µM): 0.41
- relative viability ([2]; first compound 0.2 µM): 0.6
- relative viability ([2]; first compound 0.6325 µM): 0.39
- relative viability ([2]; first compound 2 µM): 0.552
- relative viability ([3]; first compound 0.02 µM): 0.541
- relative viability ([3]; first compound 0.06325 µM): 0.587
- relative viability ([3]; first compound 0.2 µM): 0.506
- relative viability ([3]; first compound 2 µM): 0.512
- relative viability ([4]; first compound 0.02 µM): 0.764
- relative viability ([4]; first compound 0.06325 µM): 0.712
- relative viability ([4]; first compound 0.2 µM): 0.675
- relative viability ([4]; first compound 2 µM): 0.732

Cell Line: NCI-H1666
- relative viability ([1]; first compound 0.005 µM): 0.981
- relative viability ([1]; first compound 0.01581 µM): 0.919
- relative viability ([1]; first compound 0.05 µM): 0.919
- relative viability ([1]; first compound 0.1581 µM): 0.988
- relative viability ([1]; first compound 0.5 µM): 0.74
- relative viability ([2]; first compound 0.02 µM): 0.908
- relative viability ([2]; first compound 0.2 µM): 0.881
- relative viability ([2]; first compound 0.6325 µM): 0.877
- relative viability ([2]; first compound 2 µM): 0.867
- relative viability ([3]; first compound 0.02 µM): 0.553
- relative viability ([3]; first compound 0.06325 µM): 0.605
- relative viability ([3]; first compound 0.2 µM): 0.615
- relative viability ([3]; first compound 2 µM): 0.544
- relative viability ([4]; first compound 0.02 µM): 0.721
- relative viability ([4]; first compound 0.06325 µM): 0.763
- relative viability ([4]; first compound 0.2 µM): 0.713
- relative viability ([4]; first compound 2 µM): 0.713

Cell Line: NCI-H23
- relative viability ([1]; first compound 0.005 µM): 0.988
- relative viability ([1]; first compound 0.01581 µM): 0.884
- relative viability ([1]; first compound 0.05 µM): 0.939
- relative viability ([1]; first compound 0.1581 µM): 0.914
- relative viability ([1]; first compound 0.5 µM): 0.641
- relative viability ([2]; first compound 0.02 µM): 0.693
- relative viability ([2]; first compound 0.2 µM): 1.04
- relative viability ([2]; first compound 0.6325 µM): 0.797
- relative viability ([2]; first compound 2 µM): 0.622
- relative viability ([3]; first compound 0.02 µM): 0.323
- relative viability ([3]; first compound 0.06325 µM): 0.384
- relative viability ([3]; first compound 0.2 µM): 0.366
- relative viability ([3]; first compound 2 µM): 0.383
- relative viability ([4]; first compound 0.02 µM): 0.322
- relative viability ([4]; first compound 0.06325 µM): 0.303
- relative viability ([4]; first compound 0.2 µM): 0.294
- relative viability ([4]; first compound 2 µM): 0.284

Cell Line: COR-L23
- relative viability ([1]; first compound 0.005 µM): 1.08
- relative viability ([1]; first compound 0.01581 µM): 0.886
- relative viability ([1]; first compound 0.05 µM): 1.04
- relative viability ([1]; first compound 0.1581 µM): 0.926
- relative viability ([1]; first compound 0.5 µM): 1
- relative viability ([2]; first compound 0.02 µM): 0.188
- relative viability ([2]; first compound 0.2 µM): 0.204
- relative viability ([2]; first compound 0.6325 µM): 0.206
- relative viability ([2]; first compound 2 µM): 0.165
- relative viability ([3]; first compound 0.02 µM): 0.203
- relative viability ([3]; first compound 0.06325 µM): 0.304
- relative viability ([3]; first compound 0.2 µM): 0.192
- relative viability ([3]; first compound 2 µM): 0.214
- relative viability ([4]; first compound 0.02 µM): 0.487
- relative viability ([4]; first compound 0.06325 µM): 0.428
- relative viability ([4]; first compound 2 µM): 0.418

Cell Line: PC-14
- relative viability ([1]; first compound 0.005 µM): 1.1
- relative viability ([1]; first compound 0.01581 µM): 0.907
- relative viability ([1]; first compound 0.1581 µM): 1.02
- relative viability ([1]; first compound 0.5 µM): 0.985
- relative viability ([2]; first compound 0.02 µM): 0.121
- relative viability ([2]; first compound 0.2 µM): 0.134
- relative viability ([2]; first compound 0.6325 µM): 0.145
- relative viability ([2]; first compound 2 µM): 0.134
- relative viability ([3]; first compound 0.02 µM): 0.572
- relative viability ([3]; first compound 0.06325 µM): 0.635
- relative viability ([3]; first compound 0.2 µM): 0.63
- relative viability ([3]; first compound 2 µM): 0.626
- relative viability ([4]; first compound 0.02 µM): 0.214
- relative viability ([4]; first compound 0.06325 µM): 0.235
- relative viability ([4]; first compound 0.2 µM): 0.172
- relative viability ([4]; first compound 2 µM): 0.221

Cell Line: NCI-H2342
- relative viability ([1]; first compound 0.005 µM): 0.9
- relative viability ([1]; first compound 0.01581 µM): 1
- relative viability ([1]; first compound 0.05 µM): 0.812
- relative viability ([1]; first compound 0.1581 µM): 1.12
- relative viability ([1]; first compound 0.5 µM): 0.801
- relative viability ([2]; first compound 0.02 µM): 0.815
- relative viability ([2]; first compound 0.2 µM): 0.802
- relative viability ([2]; first compound 0.6325 µM): 0.97
- relative viability ([2]; first compound 2 µM): 0.796
- relative viability ([3]; first compound 0.02 µM): 0.521
- relative viability ([3]; first compound 0.06325 µM): 0.564
- relative viability ([3]; first compound 0.2 µM): 0.525
- relative viability ([3]; first compound 2 µM): 0.61
- relative viability ([4]; first compound 0.02 µM): 0.791
- relative viability ([4]; first compound 0.06325 µM): 0.705
- relative viability ([4]; first compound 0.2 µM): 0.704
- relative viability ([4]; first compound 2 µM): 0.733

Cell Line: LCLC-97TM1
- relative viability ([1]; first compound 0.005 µM): 0.945
- relative viability ([1]; first compound 0.01581 µM): 0.881
- relative viability ([1]; first compound 0.05 µM): 1
- relative viability ([1]; first compound 0.1581 µM): 1
- relative viability ([1]; first compound 0.5 µM): 0.843
- relative viability ([2]; first compound 0.02 µM): 0.142
- relative viability ([2]; first compound 0.2 µM): 0.191
- relative viability ([2]; first compound 0.6325 µM): 0.195
- relative viability ([2]; first compound 2 µM): 0.2
- relative viability ([3]; first compound 0.02 µM): 0.22
- relative viability ([3]; first compound 0.06325 µM): 0.286
- relative viability ([3]; first compound 0.2 µM): 0.217
- relative viability ([3]; first compound 2 µM): 0.225
- relative viability ([4]; first compound 0.02 µM): 0.229
- relative viability ([4]; first compound 0.06325 µM): 0.215
- relative viability ([4]; first compound 2 µM): 0.261

Cell Line: HOP-62
- relative viability ([1]; first compound 0.005 µM): 1.19
- relative viability ([1]; first compound 0.01581 µM): 1.11
- relative viability ([1]; first compound 0.05 µM): 1.17
- relative viability ([1]; first compound 0.1581 µM): 1.21
- relative viability ([1]; first compound 0.5 µM): 1.3
- relative viability ([2]; first compound 0.02 µM): 0.267
- relative viability ([2]; first compound 0.2 µM): 0.364
- relative viability ([2]; first compound 0.6325 µM): 0.342
- relative viability ([2]; first compound 2 µM): 0.223
- relative viability ([3]; first compound 0.02 µM): 0.346
- relative viability ([3]; first compound 0.06325 µM): 0.395
- relative viability ([3]; first compound 0.2 µM): 0.349
- relative viability ([3]; first compound 2 µM): 0.355
- relative viability ([4]; first compound 0.02 µM): 0.255
- relative viability ([4]; first compound 0.06325 µM): 0.213
- relative viability ([4]; first compound 0.2 µM): 0.177
- relative viability ([4]; first compound 2 µM): 0.236

Cell Line: NCI-H1734
- relative viability ([1]; first compound 0.005 µM): 0.827
- relative viability ([1]; first compound 0.01581 µM): 0.822
- relative viability ([1]; first compound 0.05 µM): 0.965
- relative viability ([1]; first compound 0.1581 µM): 0.895
- relative viability ([1]; first compound 0.5 µM): 0.718
- relative viability ([2]; first compound 0.02 µM): 0.451
- relative viability ([2]; first compound 0.2 µM): 0.409
- relative viability ([2]; first compound 0.6325 µM): 0.407
- relative viability ([2]; first compound 2 µM): 0.377
- relative viability ([3]; first compound 0.02 µM): 0.199
- relative viability ([3]; first compound 0.06325 µM): 0.256
- relative viability ([3]; first compound 0.2 µM): 0.23
- relative viability ([3]; first compound 2 µM): 0.267
- relative viability ([4]; first compound 0.02 µM): 0.52
- relative viability ([4]; first compound 0.06325 µM): 0.554
- relative viability ([4]; first compound 0.2 µM): 0.37
- relative viability ([4]; first compound 2 µM): 0.462
